Data reported in ChEMBL document CHEMBL3407412, “Synthesis and bioevaluation of pyrazole-benzimidazolone hybrids as novel human 4-Hydroxyphenylpyruvate dioxygenase inhibitors” (Eur J Med Chem, 2015).

target: 4-hydroxyphenylpyruvate dioxygenase (Homo sapiens, UniProt P32754); assay: Inhibition of human recombinant His-tagged HPPD expressed in Escherichia coli BL21(DE3) by UV/visible plate reader analysis
Sequence (P32754 whole entry): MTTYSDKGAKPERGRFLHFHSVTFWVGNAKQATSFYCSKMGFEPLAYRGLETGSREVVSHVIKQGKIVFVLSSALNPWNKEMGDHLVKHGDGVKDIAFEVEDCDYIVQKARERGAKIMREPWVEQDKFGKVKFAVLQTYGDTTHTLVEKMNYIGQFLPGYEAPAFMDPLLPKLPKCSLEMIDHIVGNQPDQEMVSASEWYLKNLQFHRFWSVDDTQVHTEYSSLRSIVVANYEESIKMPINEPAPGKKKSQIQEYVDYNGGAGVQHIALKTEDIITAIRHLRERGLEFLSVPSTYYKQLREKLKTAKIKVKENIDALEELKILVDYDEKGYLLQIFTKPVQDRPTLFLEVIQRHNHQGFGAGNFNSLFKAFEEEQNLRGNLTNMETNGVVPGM

SMILES | IC50
Cc1nn(C)c(O)c1C(=O)c1ccc2c(c1)n(Cc1ccccc1)c(=O)n2C | 670 nM
CCCn1c(=O)n(CC)c2cc(C(=O)c3cnn(C)c3O)ccc21 | 39 nM
Cn1ncc(C(=O)c2ccc3c(c2)n(C(C)(C)C)c(=O)n3C)c1O | 100 nM
Cc1nn(C)c(O)c1C(=O)c1ccc2c(c1)n(CC(C)C)c(=O)n2C | 2710 nM
CCCCn1c(=O)n(C)c2ccc(C(=O)c3cnn(C)c3O)cc21 | 170 nM
Cc1ccc(-n2c(=O)n(C)c3ccc(C(=O)c4cnn(C)c4O)cc32)cc1 | 250 nM
